Patent US9932368B2, “Peptides for the stimulation of collagen formation” (INFINITEC ACTIVOS S.L, priority 2013, dated 2018)
The star is where a group is joined. Palmitoyl = CCCCCCCCCCCCCCCC(=O)*

Tested on: type I collagen
Experiment: Determination of collagen biosynthesis (type I collagen ELISA), single peptides and mixture, Example 10
Assay type: cell-based, human
Settings: 20, 40 and 80 μg/ml, 72 hours; ELISA O.D. 450 nm; vs untreated cells
Experimental: Human Dermal Fibroblasts (ATCC PCS-201-012) were seeded in 96-well plates (3000 cells per well), and left to grow in DMEM containing 5% fetal bovine serum (FBS) for 48 hours. The medium was then replaced with fresh medium containing 0.1% FBS and the corresponding treatment for determining collagen production. After the incubation with each of the peptides (1, 2, and 3) and the mixture of peptides 1-3 synthesized in Example 1, at different concentrations (20, 40 and 80 μg/ml) of each peptide dissolved in DMEM medium in an equivalent proportion of each of them in the mixture (1:1:1 w/w/w), for a period of 72 hours, the same amounts of supernatant were added to a plate coated with human type I collagen antibody (commercial rabbit polyclonal antibodies against human collagen I, code A03C0377, provided by Bluegene Biotech Co. Ltd). The plate was incubated at room temperature for 2 hours to allow the antibody and the produced collagen to react with one another. The plate was then washed three times with PBS containing 0.5% Tween 20 for removing the remaining unbound sample. Next, a human antibody which recognizes the biotin-labeled type I collagen was added for 1 hour. After washing the plate with phosphate buffered saline (PBS) containing 0.5% Tween 20 for removing non-specific interactions, streptavidin-horseradish peroxidase (HRP) (St Louis, Sigma) was added. The amount of collagen in each well was determined using tetramethylbenzidine (TMB) (St Louis, Sigma) as the substrate for the HRP. The reaction between the HRP and TMB was stopped by adding 1 N HCl, and the O.D. (optical density) was measured at 450 nm. The untreated cells represented the negative control of the experiment.

Substance | induction of type I collagen
Palm-WRFQWQFEQ-NH2 (Palmitoyl-WRFQWQFEQ-NH2; SMILES CCCCCCCCCCCCCCCC(=O)N[C@@H](Cc1c[nH]c2ccccc12)C(=O)N[C@@H](CCCNC(=N)N)C(=O)N[C@@H](Cc1ccccc1)C(=O)N[C@@H](CCC(N)=O)C(=O)N[C@@H](Cc1c[nH]c2ccccc12)C(=O)N[C@@H](CCC(N)=O)C(=O)N[C@@H](Cc1ccccc1)C(=O)N[C@@H](CCC(=O)O)C(=O)N[C@@H](CCC(N)=O)C(N)=O) [Peptide 3] | capable of inducing type I collagen production
Palm-RGDGANPNAAG-NH2 (Palmitoyl-RGDGANPNAAG-NH2; SMILES CCCCCCCCCCCCCCCC(=O)N[C@@H](CCCNC(=N)N)C(=O)NCC(=O)N[C@@H](CC(=O)O)C(=O)NCC(=O)N[C@@H](C)C(=O)N[C@@H](CC(N)=O)C(=O)N1CCC[C@H]1C(=O)N[C@@H](CC(N)=O)C(=O)N[C@@H](C)C(=O)N[C@@H](C)C(=O)NCC(N)=O) [Peptide 1] | capable of inducing type I collagen production
Palm-RGDGPQGPQ-NH2 (Palmitoyl-RGDGPQGPQ-NH2; SMILES CCCCCCCCCCCCCCCC(=O)N[C@@H](CCCNC(=N)N)C(=O)NCC(=O)N[C@@H](CC(=O)O)C(=O)NCC(=O)N1CCC[C@H]1C(=O)N[C@@H](CCC(N)=O)C(=O)NCC(=O)N1CCC[C@H]1C(=O)N[C@@H](CCC(N)=O)C(N)=O) [Peptide 2] | capable of inducing type I collagen production
